In publication PMC12486385 (Virus Evolution, 2025):
No end group written: not given here.

Assays:
[1] = system: NTRs (IMP⍺1/2/3/5/7 and IMPβ1/2/3); experiment: Fluorescence polarization; type: binding, human; mouse (IMP⍺2); conditions: FP; poor peptide solubility
[2] = Peptide precipitation / solubility under assay conditions; type: physicochemical
[3] = molecular target: human importin beta 1 (hIMPβ1) (human, UniProt Q14974 1-876); experiment: fluorescence polarisation
Sequence of human importin beta 1 (hIMPβ1) (Q14974 whole entry): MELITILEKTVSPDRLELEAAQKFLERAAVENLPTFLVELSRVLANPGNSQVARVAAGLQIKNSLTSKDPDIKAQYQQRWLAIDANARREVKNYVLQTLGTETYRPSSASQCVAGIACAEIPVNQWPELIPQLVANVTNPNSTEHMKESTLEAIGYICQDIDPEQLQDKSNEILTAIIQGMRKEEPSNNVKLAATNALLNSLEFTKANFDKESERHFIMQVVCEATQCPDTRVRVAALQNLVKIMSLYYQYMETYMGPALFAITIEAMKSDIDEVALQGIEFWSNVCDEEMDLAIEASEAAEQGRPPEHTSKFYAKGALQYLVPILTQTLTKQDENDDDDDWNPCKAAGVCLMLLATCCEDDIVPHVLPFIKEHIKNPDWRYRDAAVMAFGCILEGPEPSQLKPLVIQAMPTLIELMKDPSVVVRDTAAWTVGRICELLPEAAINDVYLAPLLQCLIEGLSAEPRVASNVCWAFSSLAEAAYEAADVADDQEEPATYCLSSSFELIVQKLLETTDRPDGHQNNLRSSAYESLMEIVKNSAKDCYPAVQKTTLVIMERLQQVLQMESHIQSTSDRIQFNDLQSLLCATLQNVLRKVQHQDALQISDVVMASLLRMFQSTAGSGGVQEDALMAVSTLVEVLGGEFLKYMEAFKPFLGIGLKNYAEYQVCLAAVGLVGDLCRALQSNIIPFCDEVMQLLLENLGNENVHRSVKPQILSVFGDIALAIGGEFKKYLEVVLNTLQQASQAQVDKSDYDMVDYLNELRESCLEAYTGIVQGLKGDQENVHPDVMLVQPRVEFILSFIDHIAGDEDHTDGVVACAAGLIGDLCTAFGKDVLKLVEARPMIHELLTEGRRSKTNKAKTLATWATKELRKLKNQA

## 27-RRWRRRPRRRRRPYRRRPYRRYGRRRKVRRR-57 [ORF1 NLSn]
[1]
  interaction with NTRs (in words): no interaction could be detected
[2]; EMSA conditions, 10 μM FITC-peptide, TB buffer
  precipitation: consistently precipitated, suggesting poor solubility under assay conditions
[2]; FP conditions, 10 nM FITC-peptide, SEC buffer pH 8
  solubility (in words): poor peptide solubility

## YGRRRKVRRR (also: FITC-tagged, end not given here) [ORF1 NLSn_B peptide (TTDoV ORF1 residues 48-57, predicted monopartite cNLS)]
[3]
  binding result: binds
